Literature values as cited in patent US20080014263A1, “Amorphous eprosartan mesylate and process for the preparation thereof” (Glenmark Pharmaceuticals Limited, priority 2006, published 2008).
Counter-ions that a name gives are not always drawn.

Details: white to off-white free-flowing crystalline powder

solubility in ethanol (ethanol): freely soluble
solubility in water (water): insoluble
SMILES: CCCCc1ncc(/C=C(\Cc2cccs2)C(=O)O)n1Cc1ccc(C(=O)O)cc1 [Eprosartan mesylate, monomethanesulphonate of (E)-2-butyl-1-(p-carboxybenzyl)-α-2-thienylmethylimidazole-5-acrylic acid]
